From patent US7417068B2, “EP4 receptor antagonists” (Asterand UK Limited, priority 2003, dated 2008)

Assays:
[1] = target: T1, human EP4 receptor (Homo sapiens, UniProt P35408); assay: Binding ability to human EP receptors ([3H]PGE2 displacement), EP4; conditions: membranes from cells stably transfected with human EP4 receptor; 1 nM [3H]PGE2; Cheng-Prusoff from IC50; read-out: pKi EP4 (converted)
T1 construct: expressed in transfected cells
Experimental: (§1) Membranes were prepared from cells stably transfected with human EP receptor cDNA. In brief, cells were cultured to confluency, scraped from culture flasks, and centrifuged (800 g, 8 minutes, 4° C.). Cells were twice washed in ice cold homogenisation buffer containing 10 mMTris-HCl, 1 mM EDTA.2Na, 250 mM sucrose, 1 mM PMSF, 0.3 mM indomethacin, pH 7.4, homogenised and re-centrifuged as before. The supernatant was stored on ice and pellets re-homogenised and re-spun. Supernatants were pooled and centrifuged at 40000 g, 10 minutes, 4° C. Resultant membrane pellets were stored at −80° C. until use.
(§2) For assay, membranes expressing human EP4, EP3, EP2 or EP1 receptors were incubated in Millipore (MHVBN45) plates containing assay buffer, radiolabelled [^3H]PGE2 and 0.1 to 10 000 nM concentrations of compounds. Incubations were performed at suitable temperatures and for suitable times to allow equilibrium to be reached. Non-specific binding was determined in the presence of 10 uM PGE2. Bound and free radiolabel was separated by vacuum manifold filtration using appropriate wash buffers, and bound radiolabel was determined by scintillation counting. Constituents of each of the buffers are included in table 1 below.
(§3) The affinity or pKi of each compound for each receptor was calculated from the concentration causing 50% radioligand displacement (IC50) using the Cheng-Prusoff equation: […]

[2] = target: T2, human EP2 receptor (Homo sapiens, UniProt P43116); assay: Binding ability to human EP receptors ([3H]PGE2 displacement), EP2; conditions: membranes from cells stably transfected with human EP2 receptor; 3 nM [3H]PGE2; Cheng-Prusoff from IC50; read-out: pKi EP2 (converted)
T2 construct: expressed in transfected cells
Experimental: as §1, §2, §3

[3] = target: T3, human EP3 receptor (Homo sapiens, UniProt P43115); assay: Binding ability to human EP receptors ([3H]PGE2 displacement), EP3; conditions: membranes from cells stably transfected with human EP3 receptor; 2.5 nM [3H]PGE2; Cheng-Prusoff from IC50; read-out: pKi EP3 (converted)
T3 construct: expressed in transfected cells
T3 sequence (P43115 1-390): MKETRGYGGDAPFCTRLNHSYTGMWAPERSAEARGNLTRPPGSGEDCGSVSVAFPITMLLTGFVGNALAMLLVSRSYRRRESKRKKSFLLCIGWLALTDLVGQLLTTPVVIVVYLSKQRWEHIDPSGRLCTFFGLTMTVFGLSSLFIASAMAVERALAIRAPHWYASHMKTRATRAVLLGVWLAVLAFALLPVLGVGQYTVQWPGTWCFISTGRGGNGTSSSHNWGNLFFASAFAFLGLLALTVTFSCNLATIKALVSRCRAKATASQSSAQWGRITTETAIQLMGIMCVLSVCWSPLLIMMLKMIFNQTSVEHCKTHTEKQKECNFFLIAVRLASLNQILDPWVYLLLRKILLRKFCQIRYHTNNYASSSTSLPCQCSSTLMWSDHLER
Experimental: as §1, §2, §3

T2 sequence (P43116 whole entry): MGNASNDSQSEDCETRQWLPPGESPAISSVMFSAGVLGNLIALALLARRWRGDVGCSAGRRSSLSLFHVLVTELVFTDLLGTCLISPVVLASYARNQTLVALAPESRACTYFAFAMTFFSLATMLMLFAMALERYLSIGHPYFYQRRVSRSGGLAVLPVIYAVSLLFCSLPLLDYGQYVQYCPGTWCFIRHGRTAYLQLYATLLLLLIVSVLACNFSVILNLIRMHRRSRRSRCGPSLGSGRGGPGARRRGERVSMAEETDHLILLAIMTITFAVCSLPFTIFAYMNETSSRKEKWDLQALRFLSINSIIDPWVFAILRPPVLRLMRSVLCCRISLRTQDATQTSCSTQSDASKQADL
T1 sequence (P35408 whole entry): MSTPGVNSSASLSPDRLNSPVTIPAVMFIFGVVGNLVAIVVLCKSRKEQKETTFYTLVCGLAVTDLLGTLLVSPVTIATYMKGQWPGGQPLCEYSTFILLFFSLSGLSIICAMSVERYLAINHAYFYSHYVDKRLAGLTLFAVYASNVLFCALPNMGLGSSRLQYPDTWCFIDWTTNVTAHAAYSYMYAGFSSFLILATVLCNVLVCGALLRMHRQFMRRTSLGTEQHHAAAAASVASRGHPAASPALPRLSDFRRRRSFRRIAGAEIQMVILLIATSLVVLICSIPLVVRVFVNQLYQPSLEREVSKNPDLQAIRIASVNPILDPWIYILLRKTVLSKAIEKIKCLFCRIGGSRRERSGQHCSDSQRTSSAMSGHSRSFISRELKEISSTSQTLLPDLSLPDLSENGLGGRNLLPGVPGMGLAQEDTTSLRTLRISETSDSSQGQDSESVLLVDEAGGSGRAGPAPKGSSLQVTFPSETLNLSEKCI

`Cc1cc(C(=O)NCc2ccc(C(=O)O)cc2)c(-c2ccccc2)o1` [Compound 20, 4-{[(5-Methyl-2-phenyl-furan-3-carbonyl)-amino]-methyl}-benzoic acid] gave a Ki [1] of less than 10 µM, a Ki [2] greater than 10 µM and a Ki [3] greater than 10 µM.

Work on `CCCS(=O)(=O)NC(=O)Cc1ccc(NC(=O)c2cc(-c3ccc(OC(F)F)cc3)oc2C)cc1` [Compound 27, 5-(4-Difluoromethoxy-phenyl)-2-methyl-furan-3-carboxylic acid {4-[2-oxo-2-(propane-1-sulfonylamino)-ethyl]-phenyl}-amide] yielded a Ki [1] of less than 1 µM, a Ki [2] greater than 10 µM and a Ki [3] greater than 10 µM.

Compound `Cc1oc(-c2ccc(OC(F)F)cc2)cc1C(=O)Nc1ccc(CC(=O)NS(=O)(=O)c2ccc(O)cc2)cc1` [Compound 35, 5-(4-Difluoromethoxy-phenyl)-2-methyl-furan-3-carboxylic acid {4-[2-(4-hydroxy-benzenesulfonylamino)-2-oxo-ethyl]-phenyl}-amide] has a Ki [1] of less than 0.1 µM, a Ki [2] greater than 3.16 µM and a Ki [3] greater than 10 µM.

`COc1ccc(-c2cc(C(=O)Nc3ccc(CC(=O)NS(=O)(=O)c4ccccc4)cc3)c(C)o2)cc1` [Compound 23, 5-(4-Methoxy-phenyl)-2-methyl-furan-3-carboxylic acid [4-(2-benzenesulfonylamino-2-oxo-ethyl)-phenyl]-amide] gave a Ki [1] of less than 0.1 µM, a Ki [2] greater than 1 µM and a Ki [3] greater than 10 µM.

Work on `Cc1ccccc1S(=O)(=O)NC(=O)Cc1ccc(NC(=O)c2coc(-c3ccccc3)c2)cc1` [Compound 24, 5-Phenyl-furan-3-carboxylic acid {4-[2-oxo-2-(toluene-2-sulfonylamino)-ethyl]-phenyl}-amide] yielded a Ki [1] of less than 1 µM, a Ki [2] greater than 0.1 µM and a Ki [3] greater than 10 µM.

`Cc1oc(-c2ccc(OC(F)F)cc2)cc1C(=O)Nc1ccc(CC(=O)NS(=O)(=O)c2ccccc2)cc1` [Compound 25, 5-(4-Difluoromethoxy-phenyl)-2-methyl-furan-3-carboxylic acid [4-(2-benzenesulfonylamino-2-oxo-ethyl)-phenyl]-amide] was tested, and the Ki [1] was less than 0.1 µM, the Ki [2] was greater than 1 µM and the Ki [3] was greater than 10 µM.

`Cc1oc(-c2ccc(OC(F)F)cc2)cc1C(=O)Nc1ccc(CC(=O)NS(=O)(=O)c2cccs2)cc1` [Compound 29, 5-(4-Difluoromethoxy-phenyl)-2-methyl-furan-3-carboxylic acid {4-[2-oxo-2-(thiophene-2-sulfonylamino)-ethyl]-phenyl}-amide] was tested, and the Ki [1] was less than 0.1 µM, the Ki [2] was greater than 3.16 µM and the Ki [3] was greater than 10 µM.

Work on `O=C(O)Cc1ccc(NC(=O)c2coc(-c3ccc(OC(F)F)cc3)c2)cc1` [Compound 13, (4-{[5-(4-Difluoromethoxy-phenyl)-furan-3-carbonyl]-amino}-phenyl)-acetic acid] yielded a Ki [1] of less than 1 µM, a Ki [2] greater than 10 µM and a Ki [3] greater than 10 µM.

Compound `Cc1noc(C)c1S(=O)(=O)NC(=O)Cc1ccc(NC(=O)c2cc(-c3ccc(OC(F)F)cc3)oc2C)cc1` [Compound 28, 5-(4-Difluoromethoxy-phenyl)-2-methyl-furan-3-carboxylic acid {4-[2-(3,5-dimethyl-isoxazole-4-sulfonylamino)-2-oxo-ethyl]-phenyl}-amide] has a Ki [1] of less than 1 µM, a Ki [2] greater than 10 µM and a Ki [3] greater than 10 µM.

Work on `Cc1ccc(S(=O)(=O)NC(=O)Cc2ccc(NC(=O)c3cc(-c4ccc(OC(F)F)cc4)oc3C)cc2)nc1` [Compound 30, 5-(4-Difluoromethoxy-phenyl)-2-methyl-furan-3-carboxylic acid {4-[2-(5-methyl-pyridine-2-sulfonylamino)-2-oxo-ethyl]-phenyl}-amide] yielded a Ki [1] of less than 0.1 µM, a Ki [2] greater than 1 µM and a Ki [3] greater than 10 µM.

`Cc1oc(-c2ccc(OC(F)F)cc2)cc1C(=O)Nc1ccc(CC(=O)O)cc1` [Compound 18, (4-{[5-(4-Difluoromethoxy-phenyl)-2-methyl-furan-3-carbonyl]-amino}-phenyl)-acetic acid] gave a Ki [1] of less than 1 µM, a Ki [2] greater than 3.16 µM and a Ki [3] greater than 10 µM.

`COc1ccc(-c2cc(C(=O)Nc3ccc(CC(=O)O)cc3)c(C(F)(F)F)o2)cc1` [Compound 4, (4-{[5-(4-Methoxy-phenyl)-2-trifluoromethyl-furan-3-carbonyl]-amino}-phenyl)-acetic acid] gave a Ki [1] of less than 10 µM, a Ki [2] greater than 10 µM and a Ki [3] greater than 10 µM.

`COc1ccc(-c2cc(C(=O)Nc3ccc(CC(=O)NS(=O)(=O)c4ccccc4)cc3)c(C(F)(F)F)o2)cc1` [Compound 22, 5-(4-Methoxy-phenyl)-2-trifluoromethyl-furan-3-carboxylic acid [4-(2-benzenesulfonylamino-2-oxo-ethyl)-phenyl]-amide] was tested, and the Ki [1] was less than 1 µM, the Ki [2] was greater than 1 µM and the Ki [3] was greater than 10 µM.

In the case of `Cc1oc(-c2ccc(OC(F)F)cc2)cc1C(=O)Nc1ccc(CC(=O)NS(=O)(=O)c2ccccc2C(F)(F)F)cc1` [Compound 32, 5-(4-Difluoromethoxy-phenyl)-2-methyl-furan-3-carboxylic acid {4-[2-oxo-2-(2-trifluoromethyl-benzenesulfonylamino)-ethyl]-phenyl}-amide], the Ki [1] is reported as less than 0.1 µM, the Ki [2] is reported as greater than 3.16 µM and the Ki [3] is reported as greater than 3.16 µM.

For `Cc1oc(-c2ccc(OC(F)F)cc2)cc1C(=O)Nc1ccc(CC(=O)NS(=O)(=O)Cc2ccccc2)cc1` [Compound 31, 5-(4-Difluoromethoxy-phenyl)-2-methyl-furan-3-carboxylic acid [4-(2-oxo-2-phenylmethanesulfonylamino-ethyl)-phenyl]-amide], the Ki [1] was less than 0.1 µM, the Ki [2] was greater than 1 µM and the Ki [3] was greater than 10 µM.

`Cc1oc(-c2ccc(OC(F)F)cc2)cc1C(=O)Nc1ccc(CC(=O)NS(=O)(=O)c2ccccc2F)cc1` [Compound 36, 5-(4-Difluoromethoxy-phenyl)-2-methyl-furan-3-carboxylic acid {4-[2-(2-fluoro-benzenesulfonylamino)-2-oxo-ethyl]-phenyl}-amide] showed a Ki [1] of less than 0.1 µM, a Ki [2] greater than 1 µM and a Ki [3] greater than 10 µM.

In the case of `Cc1oc(-c2ccccc2)cc1C(=O)Nc1ccc(CC(=O)NS(=O)(=O)c2ccccc2)cc1` [Compound 21, 2-Methyl-5-phenyl-furan-3-carboxylic acid [4-(2-benzenesulfonylamino-2-oxo-ethyl)-phenyl]-amide], the Ki [1] is reported as less than 0.1 µM, the Ki [2] is reported as greater than 1 µM and the Ki [3] is reported as greater than 10 µM.

Work on `COc1ccc(-c2cc(C(=O)Nc3ccc(CC(=O)O)cc3)c(C)o2)cc1` [Compound 6, (4-{[5-(4-Methoxy-phenyl)-2-methyl-furan-3-carbonyl]-amino}-phenyl)-acetic acid] yielded a Ki [1] of less than 1 µM, a Ki [2] greater than 10 µM and a Ki [3] greater than 10 µM.

`O=C(O)Cc1ccc(NC(=O)c2coc(-c3ccccc3)c2)cc1` [Compound 10, {4-[(5-Phenyl-furan-3-carbonyl)-amino]-phenyl}-acetic acid] gave a Ki [1] of less than 1 µM, a Ki [2] greater than 3.16 µM and a Ki [3] greater than 10 µM.

For `Cc1ccccc1S(=O)(=O)NC(=O)Cc1ccc(NC(=O)c2cc(-c3ccc(OC(F)F)cc3)oc2C)cc1` [Compound 26, 5-(4-Difluoromethoxy-phenyl)-2-methyl-furan-3-carboxylic acid {4-[2-oxo-2-(toluene-2-sulfonylamino)-ethyl]-phenyl}-amide], the Ki [1] was less than 0.1 µM, the Ki [2] was greater than 0.316 µM and the Ki [3] was greater than 10 µM.
